Test results reported in ChEMBL document CHEMBL3272349, “Quantitative structure-activity relationships of antimalarial and dihydrofolate reductase inhibition by quinazolines and 5-substituted benzyl-2,4-diaminopyrimidines” (J Med Chem, 1977).

Each compound was assayed on Plasmodium berghei (assay: Antimalarial activity against Plasmodium berghei infected in po dosed mouse assessed as suppression of parasitemia administered for 4 days).
Type: functional

Row | SMILES | log(1/SD90)
1 | Nc1nc(N)c2cc(N(Cc3ccc(Cl)c(Cl)c3)N=O)ccc2n1 | 6.13
2 | Cc1ccc(C)n1-c1cc(-n2c(C)ccc2C)c2nc(N)nc(N)c2c1 | 4.34
3 | Nc1nc(N)c2cc(N3CCCC3c3ccccc3)ccc2n1 (configuration not stated) | 5.94
4 | Nc1nc(N)c2cc(N3CCC(c4ccccc4)CC3)ccc2n1 | 4.3
5 | Nc1nc(N)c2cc(N3CCc4ccccc4C3)ccc2n1 | 4.8

What follows are compounds tested on Plasmodium berghei (assay: Antimalarial activity against Plasmodium berghei infected in po dosed mouse assessed as suppression of parasitemia administered for 6 days).
Type: functional

Row | SMILES | log(1/SD90)
6 | Nc1nc(N)c2cc(Oc3ccc4cc(Br)ccc4c3Br)ccc2n1 | 4.05
7 | Nc1nc(N)c2cc(NCc3ccc(Cl)c(Cl)c3)ccc2n1 | 4.59
8 | Nc1nc(N)c2cc(Oc3ccc(Cl)c4ccccc34)ccc2n1 | 3.57
9 | Nc1nc(N)c2cc(OCc3ccccc3)ccc2n1 | 3.18
10 | Nc1nc(N)c2cc(Oc3cc(Cl)cc(Cl)c3)ccc2n1 | 4.11
11 | Nc1nc(N)c2cc(Oc3cc(C(F)(F)F)cc(C(F)(F)F)c3)ccc2n1 | 4.44
12 | Nc1nc(N)c2cc(Oc3ccc(Cl)c(Cl)c3)ccc2n1 | 4.52
13 | Nc1nc(N)c2cc(Oc3cc(Cl)c(Cl)cc3Cl)ccc2n1 | 4.57
14 | Nc1nc(N)c2cc(OCc3ccc(Cl)cc3)ccc2n1 | 4.06
15 | Nc1nc(N)c2cc(Oc3ccc4cc(Br)ccc4c3)ccc2n1 | 4.09
16 | Nc1nc(N)c2cc(Oc3ccccc3)ccc2n1 | 4.43

Each compound was assayed on Plasmodium berghei (assay: Antimalarial activity against Plasmodium berghei infected in po dosed mouse assessed as suppression of parasitemia).
Type: functional

Row | SMILES | log(1/SD90)
17 | Cc1c(CNc2ccc(Cl)cc2)ccc2nc(N)nc(N)c12 | 6.55
18 | Nc1nc(N)c2cc(N(C=O)Cc3ccc(Cl)c(Cl)c3)ccc2n1 | 5.24
19 | Nc1nc(N)c2c(n1)CCN(Cc1c(Cl)cccc1Cl)C2 | 4.36
20 | Nc1nc(N)c2cc(CNc3ccc(Cl)cc3)ccc2n1 | 5.2
21 | Nc1nc(N)c2c(n1)CCN(Cc1ccc(Cl)cc1Cl)C2 | 4.4
22 | Cc1c(N(Cc2ccc(Cl)c(Cl)c2)N=O)ccc2nc(N)nc(N)c12 | 5.15

The compounds below were run on Proteus vulgaris (assay: Inhibition of Proteus vulgaris dihydrofolate reductase).

Row | SMILES | Activity
23 | COc1cc(Cc2cnc(N)nc2N)cc(OC)c1OC | 0.5 ×10⁻⁸ M
24 | CCCCc1ccc(N2C(N)=NC(N)=NC2(C)C)cc1 | 10000 ×10⁻⁸ M

These compounds were tested against T1, Dihydrofolate reductase (Escherichia coli) (UniProt P0ABQ4).
T1 sequence (whole entry): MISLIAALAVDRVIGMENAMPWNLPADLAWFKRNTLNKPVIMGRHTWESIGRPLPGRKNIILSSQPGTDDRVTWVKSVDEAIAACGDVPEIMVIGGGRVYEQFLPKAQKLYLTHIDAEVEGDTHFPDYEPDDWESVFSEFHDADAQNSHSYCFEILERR
Description: Inhibition of Escherichia coli dihydrofolate reductase

Row | SMILES | log(1/I50)
25 | Nc1ncc(Cc2ccc(Cl)cc2)c(N)n1 | 5.68
26 | COc1cccc(Cc2cnc(N)nc2N)c1 | 6.31
27 | Nc1ncc(Cc2ccc(O)cc2)c(N)n1 | 5.74
28 | Cc1ccc(Cc2cnc(N)nc2N)cc1 | 5.64
29 | COc1cc(Cc2cnc(N)nc2N)cc(Cl)c1OC | 7.4
30 | COc1ccc(Cc2cnc(N)nc2N)cc1 | 5.96
31 | COc1ccc(Cc2cnc(N)nc2N)cc1OC | 7

The compounds below were run against T2, Dihydrofolate reductase (Rattus norvegicus) (UniProt Q920D2).
T2 sequence (whole entry): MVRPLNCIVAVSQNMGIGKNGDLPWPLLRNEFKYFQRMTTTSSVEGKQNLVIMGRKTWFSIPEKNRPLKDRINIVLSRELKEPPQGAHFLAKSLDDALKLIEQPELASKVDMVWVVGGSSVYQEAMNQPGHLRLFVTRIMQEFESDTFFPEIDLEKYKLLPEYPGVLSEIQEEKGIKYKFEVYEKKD
Description: Inhibition of rat liver dihydrofolate reductase

Row | SMILES | log(1/I50)
32 | Nc1ncc(Cc2ccccc2)c(N)n1 | 4.8
